Earlier results as cited in patent US6686317B2, “Supported fluridone compositions and methods” (SePro Corporation, priority 2001, dated 2004).
Like-named read-outs stand apart in the source and are kept apart here.

System: aquatic plants

1-methyl-3-phenyl-5-3-(trifluoromethyl)phenyl-4(1H)-pyridinone [fluridone]
concentration to which plant species are usually susceptible (other species susceptible only to higher concentrations): 150 ppb | concentration to which plant species are usually susceptible (some (more susceptible) species, as low as): about 5 ppb
